pIC50: −log10 of the molar value. Like-named read-outs stand apart in the source and are kept apart here.
Key:
[1] = system: M14 (amelanotic melanoma) cells; assay: antiproliferation assay (72 h, CELLTITER 96), M14; format: cell-based, human; details: Homo sapiens
Summary of the method: (§1)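 Human M14 melanoma and NCI-H460 lung carcinoma cells in RPMI-1640/10% FBS, seeded at 5×10^2–5×10^4 cells/well and adhered overnight, then exposed to seven compound concentrations for 72 h at 37 °C. Viable cells read by CellTiter 96 AQueous (MTS); IC50 = concentration giving 50% of maximal growth inhibition.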

[2] = system: NCI-H460 (large cell lung carcinoma) cells; assay: antiproliferation assay (72 h, CELLTITER 96), NCI-H460; format: cell-based, human; details: Homo sapiens
Summary of the method: as §1

K-562 cells = assay: antiproliferation assay, K-562; format: cell-based; details: Homo sapiens, K562
Procedure: (§2) For the antiproliferation assay, NCI-H460 (large cell lung carcinoma) or M14 (amelanotic melanoma) cells were grown in RPMI-1640 with 10% FBS supplemented with L-glutamine and HEPES. Cells were seeded into 96-well plates at 5×10^2 to 5×10^4 cells/well and allowed to adhere overnight; the medium was then removed. A stock solution of test compound in DMSO was diluted in medium to generate a series of working solutions. Aliquots (100 μl) of the working solutions were then added to the appropriate test wells to expose cells to the final concentrations of compound in a total volume of 100 μl. Seven different concentrations were tested, with 2-5 wells per concentration. Camptothecin was used as a positive control; wells containing vehicle without compound were used as negative controls. Plates were kept for 72 h in a 37° C., 5% CO2 incubator. After incubation, viable cells were detected with the CELLTITER 96 AQueous Non-Radioactive Cell Proliferation Assay (Promega), and IC50 values were determined using GraphPad Prism 5 software.
(§3) Antiproliferation of several of the active compounds was tested against additional cell lines.

LOX-IMVI cells = assay: antiproliferation assay, LOX-IMVI; format: cell-based; details: Homo sapiens
Procedure: as §2, §3

MES-SA/Dx5 cells = assay: antiproliferation assay, MES-SA/Dx5; format: cell-based; details: Homo sapiens
Procedure: as §2, §3
(§4) Compound 4 was tested for antiproliferation activity against several paclitaxel-resistant human cancer cell lines.

MOLT-4 cells = assay: antiproliferation assay, MOLT-4; format: cell-based; details: Homo sapiens
Procedure: as §2, §3

NCI/ADR-RES cells = assay: antiproliferation assay, NCI/ADR-RES; format: cell-based; details: Homo sapiens
Procedure: as §2, §3, §4

NCI-H187 cells = assay: antiproliferation assay, NCI-H187; format: cell-based; details: Homo sapiens
Procedure: as §2, §3

OVCAR-3 cells = assay: antiproliferation assay, OVCAR-3; format: cell-based; details: Homo sapiens
Procedure: as §2, §3

SK-Mel-2 cells = assay: antiproliferation assay, SK-Mel-2; format: cell-based; details: Homo sapiens
Procedure: as §2, §3

OVCAR-4 cells = assay: antiproliferation assay, OVCAR-4; format: cell-based; details: Homo sapiens
Procedure: as §2, §3

UO-31 cells = assay: antiproliferation assay, paclitaxel-resistant UO-31; format: cell-based; details: Homo sapiens
Procedure: as §2, §4

HCT-15 cells = assay: antiproliferation assay, paclitaxel-resistant HCT-15; format: cell-based; details: Homo sapiens
Procedure: as §2, §4

EKVX cells = assay: antiproliferation assay, paclitaxel-resistant EKVX; format: cell-based; details: Homo sapiens
Procedure: as §2, §4

DLD-1 cells = assay: antiproliferation assay, paclitaxel-resistant DLD-1; format: cell-based; details: Homo sapiens
Procedure: as §2, §4

ACHN cells = assay: antiproliferation assay, paclitaxel-resistant ACHN; format: cell-based; details: Homo sapiens
Procedure: as §2, §4

TK-10 cells = assay: antiproliferation assay, paclitaxel-resistant TK-10; format: cell-based; details: Homo sapiens
Procedure: as §2, §4

[3] = NCI-H460, Table 3, read-out: NCI-H460 IC50

Row | Structure (SMILES) | pIC50 ([1]; Table 3) | pIC50 [2, 3] | pIC50 (K-562 cells) | pIC50 (LOX-IMVI cells) | pIC50 (MES-SA/Dx5 cells; MES-SA/Dx5, MES-SA/Dx5) | pIC50 (MOLT-4 cells) | pIC50 (NCI/ADR-RES cells) | pIC50 (NCI-H187 cells) | pIC50 (OVCAR-3 cells) | other results
1 | C=CC[C@H]1C[C@]2([C@@H](C)Cc3ccc(OC)cc3F)OCOC2=CC1=O (relative stereo) [Compound 2, 6-allyl-7a-(1-(2-fluoro-4-methoxyphenyl)propan-2-yl)-7,7a-dihydrobenzo[d][1,3]dioxol-5(6H)-one] | 7.96 | 7.06 | 7.12 | 7.25 | 7.28 | 6.96 | 7.35 | 7.04 | 7.22 | pIC50 ([2]; NCI-H460, as quoted in the pharmacokinetics text, read-out: IC50 against NCI-H460 human lung cancer cells): 7.05
2 | C=CC[C@H]1C[C@]2([C@H](C)Cc3cc(F)c(OC)cc3F)OCOC2=CC1=O (relative stereo) [Compound 6, 6-allyl-7a-(1-(2,5-difluoro-4-methoxyphenyl)propan-2-yl)-7,7a-dihydrobenzo[d][1,3]dioxol-5(6H)-one] | 8.00 | 7.46 | 7.55 | 7.74 | 7.85 | 7.09 | 7.89 | 7.66 | 7.42 | 
3 | C=CC[C@H]1C[C@]2([C@@H](C)Cc3ccc(OC)c(C(N)=O)c3)OCOC2=CC1=O [Compound 29, 5-((S)-2-((3aR,5S)-5-allyl-6-oxo-3a,4,5,6-tetrahydrobenzo[d][1,3]dioxol-3a-yl)propyl)-2-methoxybenzamide] |  |  | 7.60 | 7.59 | 7.51 | 7.08 | 7.36 |  | 7.24 | pIC50 ([1]; Table 4): 7.92; pIC50 ([2]; NCI-H460, Table 4, read-out: NCI-H460 IC50): 7.18; pIC50 (SK-Mel-2 cells): 8.04
4 | CCC[C@H]1C[C@]2([C@H](C)Cc3cc(F)c(OC)cc3F)OCOC2=CC1=O [Compound 61, (6S,7aR)-7a-((R)-1-(2,5-difluoro-4-methoxyphenyl)propan-2-yl)-6-propyl-7,7a-dihydrobenzo[d][1,3]dioxol-5(6H)-one] |  |  |  | 7.28 | 7.08 | 6.92 | 7.20 |  |  | pIC50 ([1]; Table 7): 7.77; pIC50 ([2]; NCI-H460, Table 7, read-out: NCI-H460 IC50): 6.85; pIC50 (OVCAR-4 cells): 7.43
5 | CC(=O)O[C@H]1C(=O)[C@@]2(C)[C@H]([C@H](OC(=O)c3ccccc3)[C@]3(O)C[C@H](OC(=O)[C@H](O)[C@@H](NC(=O)c4ccccc4)c4ccccc4)C(C)=C1C3(C)C)[C@]1(OC(C)=O)CO[C@@H]1C[C@@H]2O [paclitaxel, reference compound] |  |  |  |  |  |  |  |  |  | pIC50 (MES-SA/Dx5 cells; MES-SA/Dx5, paclitaxel-resistant MES-SA/Dx5): 5.30; pIC50 (NCI/ADR-RES cells; paclitaxel-resistant NCI/ADR-RES): 5.02; pIC50 (UO-31 cells): 6.62; pIC50 (HCT-15 cells): 6.78; pIC50 (EKVX cells): 6.82; pIC50 (DLD-1 cells): 7.05; pIC50 (ACHN cells): 7.05; pIC50 (TK-10 cells): 7.10
